How the values were obtained:
Test in all cases: SPR, lipid vesicles on L1 chip, steady-state fit
Conditions in all cases: 10% (mole/mole) lipid in DOPC vesicles; HBS pH 7.4; 25 °C
TNFAIP8 = target: T1, TNFAIP8 (Mus musculus, UniProt Q921Z5); assay type: binding
T1 construct: isoform 1; pET-SUMO, N-terminal 6His-SUMO tag cleaved off by SUMO protease; E. coli BL21(DE3); untagged native protein
T1 sequence (Q921Z5 1-198): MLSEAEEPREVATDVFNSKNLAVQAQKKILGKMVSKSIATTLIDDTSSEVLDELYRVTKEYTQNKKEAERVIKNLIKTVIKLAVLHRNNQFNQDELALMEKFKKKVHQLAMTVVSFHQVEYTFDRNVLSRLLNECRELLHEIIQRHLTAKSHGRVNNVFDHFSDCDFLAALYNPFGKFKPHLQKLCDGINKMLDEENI

PLCδ-PH = target: T2, PLCδ-PH
T2 construct: gene PLCD1; N-terminal 6His-SUMO tag cleaved off; E. coli BL21(DE3)
Excerpt: SPR, lipid vesicles on L1 chip, steady-state fit on PLCδ-PH | Purified PLCδ-PH and GRP1-PH domains were used as positive controls

GRP1-PH = target: T3, GRP1-PH
T3 construct: gene CYTH3; N-terminal 6His-SUMO tag cleaved off; E. coli BL21(DE3)
Excerpt: SPR, lipid vesicles on L1 chip, steady-state fit on GRP1-PH | Purified PLCδ-PH and GRP1-PH domains were used as positive controls

Row | Substance | Kd (TNFAIP8) [nM] | Kd (PLCδ-PH) [nM] | Kd (GRP1-PH) [nM]
1 | PtdIns(4,5)P2 | 3160 | 2100 ± 1550 | –
2 | PtdIns(3,4,5)P3 | 4060 | – | 980 ± 690
